Measurements reported in patent US11866430B2, “Naphthyridinone compounds useful as T cell activators” (priority 2018, dated 2024).

Legend:
[1] = target: human DGKα (Homo sapiens (Human), UniProt P23743); experiment: biochemical; conditions: detergent/lipid micelle substrate; read-out: DGKα IC50
Procedure, shortened: (§1)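 Full-length human DGKα or DGKζ (C-terminal His tag, Sf9-expressed; 20 nM 4× stock) was preincubated 10 min at room temperature with PS/DAG octyl glucoside micelles in MOPS pH 7.5 buffer with MgCl2, CaCl2 and DTT. It was then started with ATP (300 uM addition) and run for 1 hr, with ADP-Glo luminescence read-out.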

[2] = tested on: pre-activated CD4 T cells and Raji cells; experiment: Raji CD4 T Cell IL2 Assay; type: cell-based; conditions: Homo sapiens, Raji
[3] = target: human DGKζ (Homo sapiens (Human), UniProt Q13574); experiment: DGKζ assay (detergent/lipid micelle substrate); type: biochemical; conditions: detergent/lipid micelle substrate; read-out: DGKζ IC50
Sequence of human DGKζ (Q13574 other isoform, or with tags, fused parts or gaps): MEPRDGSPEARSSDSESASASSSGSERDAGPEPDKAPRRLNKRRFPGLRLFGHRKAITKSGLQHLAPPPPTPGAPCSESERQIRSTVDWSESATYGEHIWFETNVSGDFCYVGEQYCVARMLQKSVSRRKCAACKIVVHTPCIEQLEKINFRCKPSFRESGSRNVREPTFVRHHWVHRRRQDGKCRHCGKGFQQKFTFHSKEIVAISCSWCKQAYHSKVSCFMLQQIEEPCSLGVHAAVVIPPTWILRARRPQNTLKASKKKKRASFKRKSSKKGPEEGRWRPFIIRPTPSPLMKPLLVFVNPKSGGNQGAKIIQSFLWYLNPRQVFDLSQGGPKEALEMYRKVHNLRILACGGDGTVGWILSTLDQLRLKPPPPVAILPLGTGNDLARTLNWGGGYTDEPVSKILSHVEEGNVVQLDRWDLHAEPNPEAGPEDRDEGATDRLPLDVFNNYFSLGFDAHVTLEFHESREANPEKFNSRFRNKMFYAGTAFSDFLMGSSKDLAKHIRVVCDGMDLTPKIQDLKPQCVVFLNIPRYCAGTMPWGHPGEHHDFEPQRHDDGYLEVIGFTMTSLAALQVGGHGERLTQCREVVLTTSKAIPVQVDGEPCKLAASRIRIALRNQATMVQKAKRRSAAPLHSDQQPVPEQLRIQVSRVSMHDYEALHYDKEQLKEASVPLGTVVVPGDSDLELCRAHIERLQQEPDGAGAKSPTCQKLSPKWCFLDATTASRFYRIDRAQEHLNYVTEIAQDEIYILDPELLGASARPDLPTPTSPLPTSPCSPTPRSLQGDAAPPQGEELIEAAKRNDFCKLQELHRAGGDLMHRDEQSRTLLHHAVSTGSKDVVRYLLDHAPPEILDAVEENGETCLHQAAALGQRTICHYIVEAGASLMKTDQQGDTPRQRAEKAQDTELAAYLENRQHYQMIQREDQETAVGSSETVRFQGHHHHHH
Procedure, shortened: as §1

Sequence of human DGKα (P23743 other isoform, or with tags, fused parts or gaps): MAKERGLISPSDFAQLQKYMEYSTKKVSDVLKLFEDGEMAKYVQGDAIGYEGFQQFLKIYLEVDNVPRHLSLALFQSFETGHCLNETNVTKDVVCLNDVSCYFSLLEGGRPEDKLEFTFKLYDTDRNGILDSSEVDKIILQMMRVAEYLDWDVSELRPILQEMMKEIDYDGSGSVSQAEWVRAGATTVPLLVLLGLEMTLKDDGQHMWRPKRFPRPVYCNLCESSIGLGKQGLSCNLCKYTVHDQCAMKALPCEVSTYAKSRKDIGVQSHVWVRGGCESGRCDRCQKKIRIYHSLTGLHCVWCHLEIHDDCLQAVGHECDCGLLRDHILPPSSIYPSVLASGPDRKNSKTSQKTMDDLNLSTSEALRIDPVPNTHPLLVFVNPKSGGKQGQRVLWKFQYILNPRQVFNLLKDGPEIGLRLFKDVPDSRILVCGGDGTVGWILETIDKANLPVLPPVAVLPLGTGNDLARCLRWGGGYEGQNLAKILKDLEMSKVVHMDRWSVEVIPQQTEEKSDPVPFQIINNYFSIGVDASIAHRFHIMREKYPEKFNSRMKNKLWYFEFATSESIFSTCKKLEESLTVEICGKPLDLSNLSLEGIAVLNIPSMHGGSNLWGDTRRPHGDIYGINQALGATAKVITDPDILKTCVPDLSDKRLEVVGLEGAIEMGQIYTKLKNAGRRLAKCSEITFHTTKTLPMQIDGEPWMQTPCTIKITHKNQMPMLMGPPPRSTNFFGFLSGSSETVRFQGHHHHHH

SMILES	IC50 [1] [µM]	IC50 [2] [nM]	IC50 [3] [µM]
Cn1c(=O)c([N+](=O)[O-])c(N2CCN(C(c3ccccc3)c3ccccc3)CC2)c2nc(Br)ccc21 [Example 52, 4-(4-benzhydrylpiperazin-1-yl)-6-bromo-1-methyl-3-nitro-1,5-naphthyridin-2(1H)-one]	7.8	56	150
Cn1c(=O)c([N+](=O)[O-])c(N2CCN(C(c3ccc(F)cc3)c3ccc(F)cc3)CC2)c2nc(Br)ccc21 [Example 53, 4-(4-(bis(4-fluorophenyl)methyl)piperazin-1-yl)-6-bromo-1-methyl-3-nitro-1,5-naphthyridin-2(1H)-one]	1.5	43	16
C#CCn1c(=O)c(C#N)c(N2CCN(Cc3ccccc3C(F)F)CC2)c2nc(Br)ccc21 [Example 64, 6-bromo-4-(4-(2-(difluoromethyl)benzyl)piperazin-1-yl)-2-oxo-1-(prop-2-yn-1-yl)-1,2-dihydro-1,5-naphthyridine-3-carbonitrile]	2.7	55000	14
C#CCn1c(=O)c(C#N)c(N2CCN(Cc3ccc(F)cc3OC)CC2)c2nc(Br)ccc21 [Example 68, 6-bromo-4-(4-(4-fluoro-2-methoxybenzyl)piperazin-1-yl)-2-oxo-1-(prop-2-yn-1-yl)-1,2-dihydro-1,5-naphthyridine-3-carbonitrile]	4	52	23
Cn1c(=O)c([N+](=O)[O-])c(N2CCN(C(c3ccc(F)cc3)c3ccccc3O)CC2)c2nc(Br)ccc21 (stereo not drawn) [Example 70, 6-bromo-4-(4-((4-fluorophenyl)(2-hydroxyphenyl)methyl)piperazin-1-yl)-1-methyl-3-nitro-1,5-naphthyridin-2(1H)-one]	0.13	8.9	3.3
Cc1ccccc1C(c1ccccc1O)N1CCN(c2c([N+](=O)[O-])c(=O)n(C)c3ccc(Br)nc23)CC1 (stereo not drawn) [Example 73, 6-bromo-4-(4-((2-hydroxyphenyl)(o-tolyl)methyl)piperazin-1-yl)-1-methyl-3-nitro-1,5-naphthyridin-2(1H)-one]	0.9	26	2.1
COCCn1c(=O)c(C#N)c(N2CCN(C(c3ccc(F)cc3)c3ccccc3O)CC2)c2nc(Br)ccc21 (stereo not drawn) [Example 117, 6-bromo-4-(4-((4-fluorophenyl)(2-hydroxyphenyl)methyl)piperazin-1-yl)-1-(2-methoxyethyl)-2-oxo-1,2-dihydro-1,5-naphthyridine-3-carbonitrile]	46	770	21
Cn1c(=O)c([N+](=O)[O-])c(N2CCN(C(c3ccc(F)cc3)c3ccc(F)cc3O)CC2)c2nc(C#N)ccc21 (stereo not drawn) [Example 122, 8-(4-((4-fluoro-2-hydroxyphenyl)(4-fluorophenyl)methyl)piperazin-1-yl)-5-methyl-7-nitro-6-oxo-5,6-dihydro-1,5-naphthyridine-2-carbonitrile]	1	11	0.72
COCCn1c(=O)c([N+](=O)[O-])c(N2CCN(C(c3ccc(F)cc3)c3ccc(F)cc3)CC2)c2nc(C#N)ccc21 [Example 147, 8-(4-(bis(4-fluorophenyl)methyl)piperazin-yl)-5-(2-methoxyethyl)-7-nitro-6-oxo-5,6-dihydro-1,5-naphthyridine-2-carbonitrile]	76	300	3.6
N#CCn1c(=O)c([N+](=O)[O-])c(N2CCN(C(c3ccc(F)cc3)c3ccc(F)cc3)CC2)c2nc(C#N)ccc21 [Example 152, 8-(4-(bis(4-fluorophenyl)methyl)piperazin-1-yl)-5-(cyanomethyl)-7-nitro-6-oxo-5,6-dihydro-1,5-naphthyridine-2-carbonitrile]	150	150	3.9
N#CCn1c(=O)c(C#N)c(N2CCN(C(c3ccc(F)cc3)c3ccc(F)cc3)CC2)c2nc(Br)ccc21 [Example 153, 4-(4-(bis(4-fluorophenyl)methyl)piperazin-1-yl)-6-bromo-1-(cyanomethyl)-2-oxo-1,2-dihydro-1,5-naphthyridine-3-carbonitrile]	180	710	76
N#CCn1c(=O)c(C#N)c(N2CCN(C(c3ccc(F)cc3)c3ccccc3O)CC2)c2nc(Br)ccc21 (stereo not drawn) [Example 157, 6-bromo-1-(cyanomethyl)-4-(4-((4-fluorophenyl)(2-hydroxyphenyl)methyl)piperazin-1-yl)-2-oxo-1,2-dihydro-1,5-naphthyridine-3-carbonitrile]	53	220	26
N#Cc1c(N2CCN(C(c3ccc(F)cc3)c3ccc(F)cc3)CC2)c2nc(Br)ccc2n(CC2CC2)c1=O [Example 161, 4-(4-(bis(4-fluorophenyl)methyl)piperazin-1-yl)-6-bromo-1-(cyclopropylmethyl)-2-oxo-1,2-dihydro-1,5-naphthyridine-3-carbonitrile]	> 240	5700	> 81
O=c1c([N+](=O)[O-])c(N2CCN(C(c3ccccc3)c3ccccc3)CC2)c2ncccc2n1CCC=C(F)F [Example 186, 4-(4-benzhydrylpiperazin-1-yl)-1-(4,4-difluorobut-3-en-1-yl)-3-nitro-1,5-naphthyridin-2(1H)-one]	> 240	3000	> 240
COCCOCCCn1c(=O)c([N+](=O)[O-])c(N2CCN(C(c3ccccc3)c3ccccc3)CC2)c2ncccc21 [Example 189, 4-(4-benzhydrylpiperazin-1-yl)-1-(3-(2-methoxyethoxy)propyl)-3-nitro-1,5-naphthyridin-2(1H)-one]	130	7300	> 240
COCCCn1c(=O)c([N+](=O)[O-])c(N2CCN(C(c3ccccc3)c3ccccc3)CC2)c2ncccc21 [Example 190, 4-(4-benzhydrylpiperazin-1-yl)-1-(3-methoxypropyl)-3-nitro-1,5-naphthyridin-2(1H)-one]	58	4200	> 240
Cn1c(=O)c(C#N)c(N2CCN(Cc3ccccc3O)CC2)c2nc(Cl)ccc21 [Example 198, 6-chloro-4-(4-(2-hydroxybenzyl)piperazin-1-yl)-1-methyl-2-oxo-1,2-dihydro-1,5-naphthyridine-3-carbonitrile]	0.074	500	150
CCN(C)c1cccc(CN2CCN(c3c(C#N)c(=O)n(C)c4ccc(Cl)nc34)CC2)c1 [Example 199, 6-chloro-4-(4-(3-(ethyl(methyl)amino)benzyl)piperazin-1-yl)-1-methyl-2-oxo-1,2-dihydro-1,5-naphthyridine-3-carbonitrile]	0.48	380	> 240
C=CCOc1cc(F)cc2c1C(N1CCN(c3c(C#N)c(=O)n(C)c4ccc(Cl)nc34)CC1)CC2 (stereo not drawn) [Example 200, 4-(4-(7-(allyloxy)-5-fluoro-2,3-dihydro-1H-inden-1-yl)piperazin-1-yl)-6-chloro-1-methyl-2-oxo-1,2-dihydro-1,5-naphthyridine-3-carbonitrile]	24	1600	> 240
CCc1ccc2c(n1)c(N1CCN(C(c3ccccc3)c3ccccc3)CC1)c(C#N)c(=O)n2C [Example 202, 4-(4-benzhydrylpiperazin-1-yl)-6-ethyl-1-methy-2-oxo-1,2-dihydro-1,5-naphthyridine-3-carbonitrile]	31	400	12
